Experimental data taken from US6339045B1, “N-(unsubstituted or substituted)-4-substituted-6-(unsubstituted or substituted)phenoxy-2-pyridinecarboxamides or thiocarboxamides, processes for producing the same, and herbicides” (Kureha Kagaku Kogyo Kabushiki Kaisha, priority 1995, dated 2002).

How the values were obtained:
Assay in all cases: Herbicidal effect by foliage and soil treatment
Assay type in all cases: in vivo
Conditions in all cases: evaluated after 14 days
[1] = test system: black nightshade (Solanum nigrum)
How it was run: (§1)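 Greenhouse pot test at 19–25 °C: spray of aqueous Tween 20 formulation onto foliage and soil of seedlings at cotyledonal–bifoliate stage, dose per area predetermined. Scoring on a rating scale after 14 days versus untreated.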

[2] = test system: common blackjack (Bidens pilosa)
How it was run: as §1

[3] = test system: cleavers (Galium aparine)
How it was run: as §1

[4] = test system: common chickweed (Stellaria media)
How it was run: as §1

[5] = test system: redroot pigweed (Amaranthus retroflexus)
How it was run: as §1

[6] = test system: wild chamomile (Matricaria chamomilla)
How it was run: as §1

[7] = test system: kediock (Sinapis arvensis)
How it was run: as §1

[8] = test system: ivyleafspeedwell (Veronica hederaefolia)
How it was run: as §1

[9] = test system: sicklepod (Cassia obtusifolia)
How it was run: as §1

[10] = test system: velvetleaf (Abutilon theophrasti)
How it was run: as §1

[11] = test system: field bindweed (Convolvulus arvensis)
How it was run: as §1

CC(C)NC(=O)c1cccc(Oc2cccc(C(F)(F)F)c2)n1 [control (a)]
herbicidal activity rating, SN (Solanum nigrum) ([1]; 10 g ai/10a): 4 (percentage of weeds killed was not less than 60% and less than 80%) | herbicidal activity rating, SN (Solanum nigrum) ([1]; 25 g ai/10a): 4 (percentage of weeds killed was not less than 60% and less than 80%) | herbicidal activity rating, SN (Solanum nigrum) ([1]; 62.5 g ai/10a): 5 (percentage of weeds killed was not less than 80%) | herbicidal activity rating, BP (Bidens pilosa) ([2]; 10 g ai/10a): 1 (percentage of weeds killed was less than 20%) | herbicidal activity rating, BP (Bidens pilosa) ([2]; 25 g ai/10a): 1 (percentage of weeds killed was less than 20%) | herbicidal activity rating, BP (Bidens pilosa) ([2]; 62.5 g ai/10a): 1 (percentage of weeds killed was less than 20%) | herbicidal activity rating, GA (Galium aparine) ([3]; 10 g ai/10a): 2 (percentage of weeds killed was not less than 20% and less than 40%) | herbicidal activity rating, GA (Galium aparine) ([3]; 25 g ai/10a): 3 (percentage of weeds killed was not less than 40% and less than 60%) | herbicidal activity rating, GA (Galium aparine) ([3]; 62.5 g ai/10a): 4 (percentage of weeds killed was not less than 60% and less than 80%) | herbicidal activity rating, SM (Stellaria media) ([4]; 10 g ai/10a): 1 (percentage of weeds killed was less than 20%) | herbicidal activity rating, SM (Stellaria media) ([4]; 25 g ai/10a): 1 (percentage of weeds killed was less than 20%) | herbicidal activity rating, SM (Stellaria media) ([4]; 62.5 g ai/10a): 1 (percentage of weeds killed was less than 20%) | herbicidal activity rating, AR (Amaranthus retroflexus) ([5]; 10 g ai/10a): 3 (percentage of weeds killed was not less than 40% and less than 60%) | herbicidal activity rating, AR (Amaranthus retroflexus) ([5]; 25 g ai/10a): 3 (percentage of weeds killed was not less than 40% and less than 60%) | herbicidal activity rating, AR (Amaranthus retroflexus) ([5]; 62.5 g ai/10a): 4 (percentage of weeds killed was not less than 60% and less than 80%) | herbicidal activity rating, MC (Matricaria chamomilla) ([6]; 10 g ai/10a): 1 (percentage of weeds killed was less than 20%) | herbicidal activity rating, MC (Matricaria chamomilla) ([6]; 25 g ai/10a): 1 (percentage of weeds killed was less than 20%) | herbicidal activity rating, MC (Matricaria chamomilla) ([6]; 62.5 g ai/10a): 1 (percentage of weeds killed was less than 20%) | herbicidal activity rating, SA (Sinapis arvensis) ([7]; 10 g ai/10a): 3 (percentage of weeds killed was not less than 40% and less than 60%) | herbicidal activity rating, SA (Sinapis arvensis) ([7]; 25 g ai/10a): 4 (percentage of weeds killed was not less than 60% and less than 80%) | herbicidal activity rating, SA (Sinapis arvensis) ([7]; 62.5 g ai/10a): 5 (percentage of weeds killed was not less than 80%) | herbicidal activity rating, VH (Veronica hederaefolia) ([8]; 10 g ai/10a): 3 (percentage of weeds killed was not less than 40% and less than 60%) | herbicidal activity rating, VH (Veronica hederaefolia) ([8]; 25 g ai/10a): 4 (percentage of weeds killed was not less than 60% and less than 80%) | herbicidal activity rating, VH (Veronica hederaefolia) ([8]; 62.5 g ai/10a): 5 (percentage of weeds killed was not less than 80%) | herbicidal activity rating, CO (Cassia obtusifolia) ([9]; 10 g ai/10a): 1 (percentage of weeds killed was less than 20%) | herbicidal activity rating, CO (Cassia obtusifolia) ([9]; 25 g ai/10a): 2 (percentage of weeds killed was not less than 20% and less than 40%) | herbicidal activity rating, CO (Cassia obtusifolia) ([9]; 62.5 g ai/10a): 3 (percentage of weeds killed was not less than 40% and less than 60%) | herbicidal activity rating, AT (Abutilon theophrasti) ([10]; 10 g ai/10a): 2 (percentage of weeds killed was not less than 20% and less than 40%) | herbicidal activity rating, AT (Abutilon theophrasti) ([10]; 25 g ai/10a): 3 (percentage of weeds killed was not less than 40% and less than 60%) | herbicidal activity rating, AT (Abutilon theophrasti) ([10]; 62.5 g ai/10a): 3 (percentage of weeds killed was not less than 40% and less than 60%) | herbicidal activity rating, CA (Convolvulus arvensis) ([11]; 10 g ai/10a): 2 (percentage of weeds killed was not less than 20% and less than 40%) | herbicidal activity rating, CA (Convolvulus arvensis) ([11]; 25 g ai/10a): 3 (percentage of weeds killed was not less than 40% and less than 60%) | herbicidal activity rating, CA (Convolvulus arvensis) ([11]; 62.5 g ai/10a): 3 (percentage of weeds killed was not less than 40% and less than 60%)
